This is an account of results in ChEMBL document CHEMBL2157990 (ACS Med Chem Lett, 2012).

Calls of active or inactive are those of the source. The rule behind the calls is not given here.

A short description of test [1]: Activation of chymotrypsin-like activity of human 20S proteasome using suc-LLVY-AMC as substrate by fluorescence assay.
Test [2] in a line: Inhibition of PA28 activated chymotrypsin-like activity of human 20S proteasome using suc-LLVY-AMC as substrate by fluorescence assay.
Test [3] is described as follows: Activation of trypsin-like activity of human 20S proteasome using Bz-VGR-AMC as substrate by fluorescence assay.
The nature of test [4]: Activation of caspase-like activity of human 20S proteasome using (Z)-LLE-bNA as substrate by fluorescence assay.
The species entered for test [5] is Homo sapiens. Briefly: Activation of chymotrypsin-like activity of human 20S proteasome using suc-LLVY-AMC as substrate at 18 uM by fluorescence assay.
The species named for test [6] is Homo sapiens. In words: Reversal of amyloid beta-induced inhibition of chymotrypsin-like activity of PA28-activated human 20S proteasome using suc-LLVY-AMC as substrate at 14 uM by fluorescence assay. Further details: scale not given: the % may be the effect or the level left.
The species entered for test [7] is Homo sapiens. In words: Reversal of amyloid beta-induced inhibition of chymotrypsin-like activity of PA28-activated human 20S proteasome using suc-LLVY-AMC as substrate by fluorescence assay.
For test [8], the species on record is Homo sapiens. In words: Activation of chymotrypsin-like activity of human 20S proteasome using suc-LLVY-AMC as substrate at 18 uM by fluorescence assay in presence of 1.1 to 30 ug/mL.
The species entered for test [9] is Homo sapiens. In words: Activation of chymotrypsin-like activity of human 20S proteasome using suc-LLVY-AMC as substrate by fluorescence assay relative to control.

As usually defined, the EC50 is the concentration giving half of the maximal effect. As a reminder, the IC50 is the concentration needed to halve the response being measured. Consider `CNC(=O)CC[C@@H](C)[C@H]1CC[C@H]2[C@@H]3CC[C@@H]4C[C@H](OC(=O)CCCCCC(=O)O)CC[C@]4(C)[C@H]3CC[C@]12C`, for which, in test [1], the EC50 entry is “Not Active”. For the same molecule, the IC50 result in [2] is “Not Active”.
Take `COC(=O)CC[C@@H](C)[C@H]1CC[C@H]2[C@@H]3CC[C@@H]4C[C@@H](N)CC[C@]4(C)[C@H]3CC[C@]12C`: in test [1], the EC50 result was “Not Active”. The IC50 in test [2] (read-out: IC50) worked out at 5.7 µM.
The like results for `COC(=O)CC[C@@H](C)[C@H]1CC[C@H]2[C@@H]3CC[C@@H]4C[C@@H](NC(=O)CCCCCC(=O)O)CC[C@]4(C)[C@H]3CC[C@]12C` were, in that order, “Not Active” and 2.6 µM.
For `C[C@H](CCC(=O)O)[C@H]1CC[C@H]2[C@@H]3CC[C@@H]4C[C@H](O)CC[C@]4(C)[C@H]3CC[C@]12C` [LITHOCHOLIC ACID], in that order: “Not Active” and > 10 µM.
Take `C[C@H](CCC(=O)O)[C@H]1CC[C@H]2[C@@H]3CC[C@@H]4C[C@H](OC(=O)CCCCCC(=O)O)CC[C@]4(C)[C@H]3CC[C@]12C`: the EC50 in test [1] (read-out: EC50) was > 15 µM. Also, in test [2], the concentration for half-maximal inhibition (IC50) result is “Not Active”.
As to `C/C=C1/[C@H](O[C@@H]2O[C@H](CO)[C@@H](O)[C@H](O)[C@H]2O)OC=C(C(=O)OC)[C@H]1CC(=O)OCCc1ccc(O)c(O)c1` [OLEUROPEIN], the EC50 result in test [1] is reported as “Not Active”. Also, the half-inhibitory concentration (IC50) entry in test [2] is given as “Not Active”.
On to `COC(=O)CC[C@@H](C)[C@H]1CC[C@H]2[C@@H]3CC[C@@H]4C[C@H](OC(=O)CCCCCC(=O)O)CC[C@]4(C)[C@H]3CC[C@]12C`, for which the 50% effective concentration (EC50) was 7.8 µM in [1] (read-out: EC50), 8.6 µM in test [3] and 11 µM in test [4]. Further, the concentration for half-maximal inhibition (IC50) result in [2] is on record as “Not Active”. The result in the test filed under Homo sapiens [5] and in the test listed under Homo sapiens [8] was Active. For the same molecule, the Activity in the test listed under Homo sapiens [6] was 50%; in the test listed under Homo sapiens [7], “Dose-dependent effect”.
Take `CCOC(=O)CC[C@@H](C)[C@H]1CC[C@H]2[C@@H]3CC[C@@H]4C[C@H](OC(=O)CCCCCC(=O)O)CC[C@]4(C)[C@H]3CC[C@]12C`: the EC50 in test [1] (read-out: EC50) was > 15 µM. The IC50 result in test [2] is listed as “Not Active”.
On to `COC(=O)CC[C@@H](C)[C@H]1CC[C@H]2[C@@H]3CC[C@@H]4C[C@@H](OC(=O)CCCCCC(=O)O)CC[C@]4(C)[C@H]3CC[C@]12C`, for which the concentration for a half-maximal effect (EC50) entry in [1] was “Not Active”. Further, the IC50 in test [2] (read-out: IC50) came to 3.1 µM.
For the molecule `COC(=O)CC[C@@H](C)[C@H]1CC[C@H]2[C@@H]3CC[C@@H]4C[C@H](NC(=O)CCCCCC(=O)O)CC[C@]4(C)[C@H]3CC[C@]12C`, the EC50 in test [1] (read-out: EC50) came out at 4.3 µM. For the same molecule, the IC50 entry in [2] is listed as “Not Active”. Moreover, the fold change (FC) in the test listed under Homo sapiens [9] worked out at 2.
With `COC(=O)CC[C@@H](C)[C@H]1CC[C@H]2[C@@H]3CC[C@@H]4C[C@H](N)CC[C@]4(C)[C@H]3CC[C@]12C`, the EC50 in test [1] (read-out: EC50) turned out to be 6.7 µM. The IC50 entry in [2] is on record as “Not Active”.
